Results from US9884863B2, “STAT3 inhibitor” (Board of Regents, The University of Texas System, priority 2013, dated 2018).
Read-outs that look alike come from different tables or passages of the source.

What was measured:
[1] = tested on: MDA-MB-231; assay: MTS cell proliferation assay, MDA-MB-231; assay type: cell-based, human; conditions: Homo sapiens
Summary of the method: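 Cells are exposed to DMSO or STAT3 inhibitors at 0.01-100 μM for 72 h, or at 1, 5 and 10 μM. Proliferation is read by MTS absorbance at 550 or 560 nm after 1 h at 37 °C. Each concentration is run in quadruplicate wells.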

[2] = tested on: Panc-1; assay: MTS cell proliferation assay, Panc-1; assay type: cell-based, human; conditions: Homo sapiens
Protocol: (§1) Cancer cells (breast cancer cell lines MCF-7, MDA-MB-361, SKBR3 and MDA-MB-231, pancreatic cancer cell lines AsPC-1. BxPC3 and Panc-1) were seeded in 96-well plates at a density of 1000-2000 cells/well and treated with DMSO, 0.01, 0.1, 1, 5, 10, and […] of STAT3 individual inhibitors for 72 hrs. Proliferation was measured by treating cells with the 3-(4,5-dimethylthiazol-2-yl)-5-(3-carboxymethoxyphenyl)-2-(4-sulfophenyl)-2H-tetrazolium) (MTS) in a CellTiter 96t AQueous Non-Radioactive Cell Proliferation Assay kit from Promega, Madison, Wis., USA). Absorbance of all wells was determined by measuring OD at 550 nm after 1 hr incubation at 37° C. on a 96-well iMark™ Microplate Absorbance Reader (BioRad, Hercules, Calif.). Each individual compound was tested in quadruplicate wells for each concentration, and the results were reported as mean absorption±s.e.
(§2) In Vitro Determination of Effects of Synthesized Compounds on Cancer Cell Proliferation. Cancer cells (breast cancer cell lines MCF-7 and MDA-MB-231, pancreatic cancer cell lines AsPC-1 and Panc-1) were seeded in 96-well plates at a density of 2×10^3 cells/well and treated with DMSO, 0.01, 0.1, 1, 5, 10, and 100 μM of individual STAT3 inhibitors for 72 h. Proliferation was measured by treating cells with the 3-(4,5-dimethylthiazol-2-yl)-5-(3-carboxymethoxyphenyl)-2-(4-sulfophenyl)-2H-tetrazolium) (MTS) in a CellTiter 96t Aqueous Non-Radioactive Cell Proliferation Assay kit (Promega, Madison, Wis., USA). Absorbance of all wells was determined by measuring OD at 550 nm after 1 h incubation at 37° C. on a 96-well iMark™ Microplate Absorbance Reader (BioRad, Hercules, Calif.). Each individual compound was tested in quadruplicate wells for each concentration.

[3] = tested on: AsPC1; assay: MTS cell proliferation assay, AsPC1; assay type: cell-based, human; conditions: Homo sapiens
Protocol: as §1, §2

[4] = tested on: MCF-7; assay: MTS cell proliferation assay, MCF-7; assay type: cell-based, human
Summary of the method: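 MCF-7 human breast cancer cells were exposed to test compounds at a range of concentrations, then proliferation was measured with the MTS reagent from Promega's CellTiter 96 AQueous Non-Radioactive Cell Proliferation Assay kit. After 1 hr at 37° C., OD at 550 nm was read on a 96-well iMark Microplate Absorbance Reader, with quadruplicate wells per concentration.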

[5] = tested on: MDA-MB-361; assay: MTS cell proliferation assay, MDA-MB-361; assay type: cell-based; conditions: Homo sapiens, ER-positive breast cancer, 72 hrs, >10 = no effect, read-out: IC50 MDA-MB-361 (Table 1)
Protocol: as §1

[6] = tested on: SKBR3; assay: MTS cell proliferation assay, SKBR3; assay type: cell-based; conditions: Homo sapiens, SK-BR-3; ER-negative breast cancer, 72 hrs; >10 = no effect; read-out: IC50 SKBR3 (Table 1)
Protocol: as §1

[7] = tested on: BxPc-3H; assay: MTS cell proliferation assay, BxPc-3H; assay type: cell-based; conditions: Homo sapiens; pancreatic cancer, 72 hrs; >10 = no effect; read-out: IC50 BxPc-3H (Table 1)
Protocol: as §1

[8] = MDA-MB-231, 72 h, read-out: IC50 MDA-MB-231 (Table 1)
[9] = PANC-1, 72 h, read-out: IC50 Panc-1 (Table 1)
[10] = ASPC1, 72 h, read-out: IC50 AsPC1 (Table 1)
[11] = Homo sapiens, MCF7, 72 h, read-out: IC50 MCF-7 (Table 1)
[12] = MCF-7, 48 hr, μM concentrations
[13] = MDA-MB-231, ER-negative breast cancer, 72 hrs, >10 = no effect, read-out: IC50 MDA-MB-231 (Table 1)
[14] = PANC-1, pancreatic cancer, 72 hrs, >10 = no effect, read-out: IC50 Panc-1 (Table 1)
[15] = ASPC1, pancreatic cancer, 72 hrs, >10 = no effect, read-out: IC50 AsPC1 (Table 1)
[16] = Homo sapiens, MCF7, 72 h; read-out: IC50 MCF-7 (Table 1)

SMILES | IC50 ([1]; MDA-MB-231, Table 2 numbering 1-14, >10 = no effect, read-out: IC50 MDA-MB-231 (Table 2)) [µM] | IC50 ([2]; PANC-1, Table 2 numbering 1-14, read-out: IC50 Panc-1 (Table 2)) [µM] | IC50 ([3]; ASPC1, Table 2 numbering 1-14, read-out: IC50 AsPC1 (Table 2)) [µM] | IC50 ([4]; Homo sapiens, MCF7; Table 2 numbering 1-14; >10 = no effect; read-out: IC50 MCF-7 (Table 2)) [µM] | IC50 [1, 8] [µM] | IC50 [2, 9] [µM] | IC50 [3, 10] [µM] | IC50 [4, 11] [µM] | IC50 [5] [µM] | IC50 [6] [µM] | IC50 [7] [µM] | inhibition on breast cancer cell proliferation (FIG. 1) [4, 12] | IC50 [1, 13] [µM] | IC50 [2, 14] [µM] | IC50 [3, 15] [µM] | IC50 [4, 16] [µM]
COC1CS(=O)(=O)c2cc(NC(=O)c3cc(Cl)ccc3O)ccc21 (centres unmarked) [Compound 14] | 7.05 | 8.39 | 8.46 | 6.07 |  |  |  |  |  |  |  |  |  |  |  | 
O=C(Nc1ccc([N+](=O)[O-])cc1Cl)c1cc(Cl)ccc1OCCN1CCOCC1 [HJC-1-14, 5-Chloro-N-(2-chloro-4-nitro-phenyl)-2-(2-morpholin-4-yl-ethoxy)benzamide] |  |  |  |  | 17.9 | > 10 | 73.2 | 9.87 | 12.6 | 5.1 | > 10 |  |  |  |  | 
O=C(Nc1ccc([N+](=O)[O-])cc1Cl)c1cc(-c2ccccc2)nc2ccccc12 [HJC-1-17, 2-Phenyl-quinoline-4-carboxylic acid (2-chloro-4-nitro-phenyl)amide] |  |  |  |  | > 10 | > 10 | > 10 | 15.9 | 17.4 | > 10 | > 10 |  |  |  |  | 
O=C(Nc1ccc2c(c1)S(=O)(=O)C=C2)c1cc(-c2ccccc2)nc2ccccc12 [HJC-1-23, 2-Phenyl-quinoline-4-carboxylic acid (1,1-dioxo-1H-1λ^6-benzo[b]thiophen-6-yl)-amide] |  |  |  |  | 0.29 | 0.26 | 1.25 | 0.1 | 0.24 | 0.22 | 0.2 | significant inhibition |  |  |  | 
O=C(Nc1ccc([N+](=O)[O-])cc1Cl)c1cc(Cl)ccc1OC1CCNCC1 [HJC-1-25, 5-Chloro-N-(2-chloro-4-nitro-phenyl)-2-(piperidin-4-yloxy)benzamide] |  |  |  |  |  |  |  |  | 0.18 | 0.28 | 0.27 | significant inhibition | 0.29 | 0.54 | 2.76 | 0.25
C[C@H](NC(=O)c1cc(-c2ccccc2)nc2ccccc12)c1ccccc1 [HJC-1-28, 2-Phenyl-quinoline-4-carboxylic acid (1-phenyl-ethyl)amide] |  |  |  |  |  |  |  |  | 132 | 45.9 | 16.4 |  | 86 | 15.4 | > 10 | 2.24
Nc1ccc(NC(=O)c2cc(Cl)ccc2O)c(Cl)c1 [HJC-1-29, N-(4-Amino-2-chloro-phenyl)-5-chloro-2-hydroxy-benzamide] |  |  |  |  |  |  |  |  | 14.9 | 16.1 | > 10 |  | > 10 | > 10 | > 10 | > 10
C[C@H](NC(=O)c1cc(Cl)ccc1O)c1ccccc1 [HJC-1-30, 5-Chloro-2-hydroxy-N-(1-phenyl-ethyl)benzamide] |  |  |  |  |  |  |  |  | 6.39 | 6.51 | 7.26 | significant inhibition | 8.88 | 8.44 | 7.54 | 0.9
CS(=O)(=O)Nc1ccc(NC(=O)c2cc(Cl)ccc2O)c(Cl)c1 [HJC-1-31, 5-Chloro-N-(2-chloro-4-methanesulfonylamino-phenyl)-2-hydroxybenzamide] |  |  |  |  |  |  |  |  | 43 | > 10 | > 10 |  | > 10 | 0.84 | > 10 | > 10
O=C(Nc1ccc2c(c1)S(=O)(=O)C=C2)c1cc(-c2ccccc2)nc(-c2ccccc2)c1 [HJC-1-36, N-(1,1-Dioxo-1H-1λ^6-benzo[b]thiophen-6-yl)-2,6-diphenyl-isonicotinamide] |  |  |  |  |  |  |  |  | 0.23 | 0.2 | 0.27 | significant inhibition | 0.45 | 0.31 | 0.12 | 0.65
CC(=O)Nc1ccc(NC(=O)c2cc(Cl)ccc2OC(C)=O)c(Cl)c1 [HJC-1-37, Acetic acid 2-(4-acetylamino-2-chloro-phenylcarbamoyl)-4-chlorophenyl ester] |  |  |  |  |  |  |  |  | 9.23 | 9.14 | 13.2 |  | > 10 | 27.9 | 11.6 | 11.7
NCCCOc1ccc(Cl)cc1C(=O)Nc1ccc([N+](=O)[O-])cc1Cl [HJC-3-8, 2-(3-Aminopropoxy)-5-chloro-N-(2-chloro-4-nitrophenyl)benzamide] |  |  |  |  |  |  |  |  |  |  |  | significant inhibition | 2.61 | 3.11 | 4.2 | 3.11
Cc1ccc(S(=O)(=O)Nc2ccc3c(c2)S(=O)(=O)C=C3)cc1 [HJC-3-70, N-(1,1-Dioxo-1H-1λ^6-benzo[b]thiophen-6-yl)-4-methylbenzenesulfonamide] |  |  |  |  |  |  |  |  |  |  |  |  | 2.66 | 2.89 | 1.92 | 3.24
N#C/C(=C\c1cccc(Br)n1)C(=O)Nc1ccc2c(c1)S(=O)(=O)C=C2 [HJC-3-71, 3-(6-Bromo-pyridin-2-yl)-2-cyano-N-(1,1-dioxo-1H-1λ^6-benzo[b]thiophen-6-yl)-acrylamide] |  |  |  |  |  |  |  |  |  |  |  | significant inhibition | 1.53 | 1.64 | 1.54 | 3.31
NCCCCCOc1ccc(Cl)cc1C(=O)Nc1ccc([N+](=O)[O-])cc1Cl [HJC-3-89, 2-(5-Amino-pentyloxy)-5-chloro-N-(2-chloro-4-nitro-phenyl)benzamide] |  |  |  |  |  |  |  |  |  |  |  | significant inhibition | 3.1 | 4.67 | 2.08 | 3.49
O=C(Nc1ccc2c(c1)S(=O)(=O)C=C2)c1cc(Cl)ccc1OCCN1CCNCC1 [HJC-4-13, 5-Chloro-N-(1,1-dioxo-1H-1λ^6-benzo[b]thiophen-6-yl)-2-(2-piperazin-1-yl-ethoxy) benzamide] |  |  |  |  |  |  |  |  |  |  |  |  | 3.29 | 3.69 | 1.87 | 2.56
NCCCOc1ccc(Cl)cc1C(=O)Nc1ccc2c(c1)S(=O)(=O)C=C2 [HJC-4-16, 2-(3-Aminopropoxy)-5-chloro-N-(1,1-dioxo-1H-1λ^6-benzo[b]thiophen-6-yl)benzamide] |  |  |  |  |  |  |  |  |  |  |  | significant inhibition | 1.97 | 1.88 | 0.27 | 1.76
CNCCOc1ccc(Cl)cc1C(=O)Nc1ccc2c(c1)S(=O)(=O)C=C2 [HJC-4-28, 5-Chloro-N-(1,1-dioxo-1H-1λ^6-benzo[b]thiophen-6-yl)-2-(2-methylaminoethoxy)benzamide] |  |  |  |  |  |  |  |  |  |  |  | significant inhibition | 3.12 | 3.09 | 2.05 | 3.15
O=C(Nc1ccc2c(c1)S(=O)(=O)C=C2)c1ccnc(-c2ccccc2)c1 [HJC-4-30, N-(1,1-Dioxo-1H-1λ^6-benzo[b]thiophen-6-yl)-2-phenyl-isonicotinamide] |  |  |  |  |  |  |  |  |  |  |  | significant inhibition | 1.85 | 3.35 | 1.3 | 3.78
